The nature of series [1]: Absorption spectra (Cary 5000 UV-Vis-NIR spectrophotometer, 1 cm quartz cell). Format: physicochemical. Particulars: ring closed lactone form, FIG. 2. On the procedure: (§1) All chemicals and solvents were purchased from commercial suppliers and used without further purification unless other-wise specified. ^1H NMR (500 MHz) and ^13C NMR ([…]) spectra were recorded in deuterated solvents on a Bruker ADVANCE 500 NMR Spectrometer. J values are expressed in Hz and quoted chemical shifts are in ppm downfield from tetramethylsilane (TMS) reference using the residual protonated solvents as an internal standard. The signals have been designated as follows: s (singlet), d (doublet), t (triplet), m (multiplets). High resolution mass spectra (HRMS) were deter-mined on Bruker-micrOTOF-Q II Mass Spectrometer. Absorption spectra were acquired using a Cary 5000 UV-Vis-NIR spectrophotometer in a 1 cm quartz cell. Fluorescence spectra were acquired using a Horiba QuantaMaster 8075-21 spectrofluorometer with xenon lamp excitation and liquid nitrogen cooled indium gallium arsenide solid state detector. […] The relative quantum yield of the rhodindolizine dye was calculated using a known technique. […] The absorbance point for the quantum yield was chosen because of similar overlap in the absorption spectra between the standard and the rhodindolizine dye. […]
(§2) Additionally, a range of solvent polarities were evaluated to access the polarity of RhIndz in the ground-state via absorption spectroscopy and in the excited-state via fluorescence spectroscopy (Table 6).

A short description of series [2]: Fluorescence spectra (Horiba QuantaMaster 8075-21 spectrofluorometer, InGaAs detector). Format: physicochemical. To be noted: closed spirolactone structure. On the procedure:
as §1, §2

SMILES strings stand for the structures.

For `Cc1c(-c2ccccc2)c(-c2ccc3c(c2)Oc2cc(-c4c(-c5ccccc5)c(C)c5ccccn45)ccc2C32OC(=O)c3ccccc32)n2ccccc12` [RhIndz, 3′,6′-bis(1-methyl-2-phenylindolizin-3-yl)-3H-spiro[2-benzofuran-1,9′-xanthen]-3-one], the absorption maximum in series [1] turned out to be 375 nm. In series [2], the “fluorescence of closed spirocyclic form” value was “non-fluorescent”.

Source of the values: patent US12173212B2, “Design, synthesis, and photophysical properties of a novel NIR II dye for biological imaging and optoelectronic devices” (University of Mississippi, priority 2020, dated 2024).
